Values quoted from earlier work as cited in publication PMC9516332 (Frontiers in Oncology, 2022).
Where two headings read alike, the source gives them in different places.

Columns and labels:
Details in all cases: cited from earlier work
[1] = biological target: panel of 255 wild-type kinases (Homo sapiens, UniProt P29376)
[2] = biological target: panel of 255 wild-type kinases (Homo sapiens, UniProt P28482)
[3] = biological target: panel of 255 wild-type kinases (Homo sapiens, UniProt Q15303)
[4] = biological target: panel of 255 wild-type kinases (Homo sapiens, UniProt Q8N568)
[5] = biological target: T1, panel of 255 wild-type kinases (Homo sapiens, UniProt Q96BR1)
T1 sequence (Q96BR1 1-496): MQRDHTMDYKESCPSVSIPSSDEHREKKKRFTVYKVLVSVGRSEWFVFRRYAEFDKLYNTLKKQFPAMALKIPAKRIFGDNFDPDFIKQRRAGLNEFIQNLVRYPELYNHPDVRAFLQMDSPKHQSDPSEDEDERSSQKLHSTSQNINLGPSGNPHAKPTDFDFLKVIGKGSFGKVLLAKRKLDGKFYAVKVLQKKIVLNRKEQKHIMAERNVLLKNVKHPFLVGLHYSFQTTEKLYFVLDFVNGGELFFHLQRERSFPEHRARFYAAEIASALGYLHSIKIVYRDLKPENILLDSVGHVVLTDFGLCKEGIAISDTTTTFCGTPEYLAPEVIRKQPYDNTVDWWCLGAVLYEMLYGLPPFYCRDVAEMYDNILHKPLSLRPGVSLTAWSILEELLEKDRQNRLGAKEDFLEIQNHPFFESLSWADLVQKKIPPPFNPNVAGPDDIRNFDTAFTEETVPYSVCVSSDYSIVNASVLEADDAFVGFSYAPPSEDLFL

[6] = biological target: T2, panel of 255 wild-type kinases (Homo sapiens, UniProt P29320)
T2 sequence (P29320 21-983): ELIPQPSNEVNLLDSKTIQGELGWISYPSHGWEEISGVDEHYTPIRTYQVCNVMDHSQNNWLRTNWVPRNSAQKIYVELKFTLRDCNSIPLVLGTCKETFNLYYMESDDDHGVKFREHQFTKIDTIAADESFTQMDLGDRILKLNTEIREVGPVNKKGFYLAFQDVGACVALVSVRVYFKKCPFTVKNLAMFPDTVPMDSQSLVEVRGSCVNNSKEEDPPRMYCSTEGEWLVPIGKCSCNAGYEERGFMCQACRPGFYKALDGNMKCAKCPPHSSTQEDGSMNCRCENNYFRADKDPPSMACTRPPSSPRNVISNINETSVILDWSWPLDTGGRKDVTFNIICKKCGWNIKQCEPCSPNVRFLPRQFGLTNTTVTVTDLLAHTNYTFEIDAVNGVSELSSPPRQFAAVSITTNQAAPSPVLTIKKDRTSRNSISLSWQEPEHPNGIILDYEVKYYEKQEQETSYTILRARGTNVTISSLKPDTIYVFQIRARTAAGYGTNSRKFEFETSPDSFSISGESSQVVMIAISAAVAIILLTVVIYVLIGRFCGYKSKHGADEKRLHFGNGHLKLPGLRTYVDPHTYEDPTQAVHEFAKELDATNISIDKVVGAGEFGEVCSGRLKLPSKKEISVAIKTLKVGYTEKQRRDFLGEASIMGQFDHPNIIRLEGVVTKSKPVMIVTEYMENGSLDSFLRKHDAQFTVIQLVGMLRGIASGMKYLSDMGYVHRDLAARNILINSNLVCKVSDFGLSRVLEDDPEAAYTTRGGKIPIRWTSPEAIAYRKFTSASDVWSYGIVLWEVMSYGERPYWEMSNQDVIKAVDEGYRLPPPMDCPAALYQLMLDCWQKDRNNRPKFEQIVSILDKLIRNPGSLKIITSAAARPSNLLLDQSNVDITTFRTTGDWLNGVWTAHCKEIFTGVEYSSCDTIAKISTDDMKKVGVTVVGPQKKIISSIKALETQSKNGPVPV

[7] = kinase LTK, 1 µmol/L single concentration, ref DOI: 10.1158/1535-7163.MCT-18-0877
[8] = kinase Erk2, 1 µmol/L single concentration, ref DOI: 10.1158/1535-7163.MCT-18-0877
[9] = kinase HER4, 1 µmol/L single concentration, ref DOI: 10.1158/1535-7163.MCT-18-0877
[10] = kinase DCAMKL2, 1 µmol/L single concentration, ref DOI: 10.1158/1535-7163.MCT-18-0877
[11] = kinase SGK3, 1 µmol/L single concentration, ref DOI: 10.1158/1535-7163.MCT-18-0877
[12] = kinase EPHA3, 1 µmol/L single concentration, ref DOI: 10.1158/1535-7163.MCT-18-0877
[13] = kinase LTK, 1 µmol/L single concentration, ref DOI: 10.1371/journal.pone.0092146
[14] = kinase Erk2, 1 µmol/L single concentration, ref DOI: 10.1371/journal.pone.0092146
[15] = kinase HER4, 1 µmol/L single concentration, ref DOI: 10.1371/journal.pone.0092146
[16] = kinase DCAMKL2, 1 µmol/L single concentration, ref DOI: 10.1371/journal.pone.0092146
[17] = kinase SGK3, 1 µmol/L single concentration, ref DOI: 10.1371/journal.pone.0092146
[18] = kinase EPHA3, 1 µmol/L single concentration, ref DOI: 10.1371/journal.pone.0092146

For CC#CC(=O)N1CCC[C@H]1c1nc(-c2ccc(C(=O)Nc3ccccn3)cc2)c2c(N)nccn12 [acalabrutinib], the “%-inhibition at 1 µmol/L, LTK” value [1, 7] is given as 10%, the “%-inhibition at 1 µmol/L, Erk2” value [2, 8] is given as -2% and the “%-inhibition at 1 µmol/L, HER4” value [3, 9] is given as 78%. The “%-inhibition at 1 µmol/L, DCAMKL2” value [4, 10] was 4.63%, the “%-inhibition at 1 µmol/L, SGK3” value [5, 11] was -12% and the “%-inhibition at 1 µmol/L, EPHA3” value [6, 12] was -2%.

For CCc1cc2c(cc1N1CCC(N3CCOCC3)CC1)C(C)(C)c1[nH]c3cc(C#N)ccc3c1C2=O [alectinib], the “%-inhibition at 1 µmol/L, LTK” value [1, 7] is given as 99%, the “%-inhibition at 1 µmol/L, Erk2” value [2, 8] is given as 1.1% and the “%-inhibition at 1 µmol/L, HER4” value [3, 9] is given as 34%. The “%-inhibition at 1 µmol/L, DCAMKL2” value [4, 10] was 7%, the “%-inhibition at 1 µmol/L, SGK3” value [5, 11] was 1.51% and the “%-inhibition at 1 µmol/L, EPHA3” value [6, 12] was 3.25%.

In the case of COc1cc(N2CCC(N3CCN(C)CC3)CC2)ccc1Nc1ncc(Cl)c(Nc2ccccc2P(C)(C)=O)n1 [brigatinib], the “%-inhibition at 1 µmol/L, LTK” value [1] is listed as 100%, the “%-inhibition at 1 µmol/L, Erk2” value [2] is listed as 10% and the “%-inhibition at 1 µmol/L, HER4” value [3] is listed as 99%. For the same compound, the “%-inhibition at 1 µmol/L, DCAMKL2” value [4] was 52%, the “%-inhibition at 1 µmol/L, SGK3” value [5] was -2.26% and the “%-inhibition at 1 µmol/L, EPHA3” value [6] was 0.198%.

For Cc1cc(Nc2ncc(Cl)c(Nc3ccccc3S(=O)(=O)C(C)C)n2)c(OC(C)C)cc1C1CCNCC1 [ceritinib], the “%-inhibition at 1 µmol/L, LTK” value [1, 7] is listed as 100%, the “%-inhibition at 1 µmol/L, Erk2” value [2, 8] is listed as 57% and the “%-inhibition at 1 µmol/L, HER4” value [3, 9] is listed as 51%. The “%-inhibition at 1 µmol/L, DCAMKL2” value [4, 10] was 85%, the “%-inhibition at 1 µmol/L, SGK3” value [5, 11] was -0.738% and the “%-inhibition at 1 µmol/L, EPHA3” value [6, 12] was 1.74%.

In the case of O=C(c1ccc(F)c(F)c1Nc1ccc(I)cc1F)N1CC(O)([C@@H]2CCCCN2)C1 [cobimetinib], the “%-inhibition at 1 µmol/L, LTK” value [1, 7] is given as 2.85%, the “%-inhibition at 1 µmol/L, Erk2” value [2, 8] is given as -6.38% and the “%-inhibition at 1 µmol/L, HER4” value [3, 9] is given as 11%. For the same compound, the “%-inhibition at 1 µmol/L, DCAMKL2” value [4, 10] was -9%, the “%-inhibition at 1 µmol/L, SGK3” value [5, 11] was -4% and the “%-inhibition at 1 µmol/L, EPHA3” value [6, 12] was 2%.

In the case of C[C@@H](Oc1cc(-c2cnn(C3CCNCC3)c2)cnc1N)c1c(Cl)ccc(F)c1Cl [crizotinib], the “%-inhibition at 1 µmol/L, LTK” value [1, 13] is given as 102%, the “%-inhibition at 1 µmol/L, Erk2” value [2, 14] is given as -4.58% and the “%-inhibition at 1 µmol/L, HER4” value [3, 15] is given as -18%. The “%-inhibition at 1 µmol/L, DCAMKL2” value [4, 16] was 49%, the “%-inhibition at 1 µmol/L, SGK3” value [5, 17] was -3% and the “%-inhibition at 1 µmol/L, EPHA3” value [6, 18] was 19%.

In the case of CC(C)(C)c1nc(-c2cccc(NS(=O)(=O)c3c(F)cccc3F)c2F)c(-c2ccnc(N)n2)s1 [dabrafenib], the “%-inhibition at 1 µmol/L, LTK” value [1, 13] is listed as 2.67%, the “%-inhibition at 1 µmol/L, Erk2” value [2, 14] is listed as -8% and the “%-inhibition at 1 µmol/L, HER4” value [3, 15] is listed as 23%. For the same compound, the “%-inhibition at 1 µmol/L, DCAMKL2” value [4, 16] was 19%, the “%-inhibition at 1 µmol/L, SGK3” value [5, 17] was 0.0854% and the “%-inhibition at 1 µmol/L, EPHA3” value [6, 18] was 18%.

In the case of C=CC(=O)N1CCC[C@@H](n2nc(-c3ccc(Oc4ccccc4)cc3)c3c(N)ncnc32)C1 [ibrutinib], the “%-inhibition at 1 µmol/L, LTK” value [1, 7] is given as 2.76%, the “%-inhibition at 1 µmol/L, Erk2” value [2, 8] is given as -7% and the “%-inhibition at 1 µmol/L, HER4” value [3, 9] is given as 99%. The “%-inhibition at 1 µmol/L, DCAMKL2” value [4, 10] was -9%, the “%-inhibition at 1 µmol/L, SGK3” value [5, 11] was 0.579% and the “%-inhibition at 1 µmol/L, EPHA3” value [6, 12] was 3.8%.

In the case of CO[C@@H]1[C@H](N(C)C(=O)c2ccccc2)C[C@H]2O[C@]1(C)n1c3ccccc3c3c4c(c5c6ccccc6n2c5c31)C(=O)NC4 [midostaurin], the “%-inhibition at 1 µmol/L, LTK” value [1, 7] is listed as 90%, the “%-inhibition at 1 µmol/L, Erk2” value [2, 8] is listed as 2.14% and the “%-inhibition at 1 µmol/L, HER4” value [3, 9] is listed as 77%. The “%-inhibition at 1 µmol/L, DCAMKL2” value [4, 10] was 8%, the “%-inhibition at 1 µmol/L, SGK3” value [5, 11] was 16% and the “%-inhibition at 1 µmol/L, EPHA3” value [6, 12] was 8%.

For C=CC(=O)Nc1cc(Nc2nccc(-c3cn(C)c4ccccc34)n2)c(OC)cc1N(C)CCN(C)C [osimertinib], the “%-inhibition at 1 µmol/L, LTK” value [1, 7] is given as 97%, the “%-inhibition at 1 µmol/L, Erk2” value [2, 8] is given as -10% and the “%-inhibition at 1 µmol/L, HER4” value [3, 9] is given as 96%. The “%-inhibition at 1 µmol/L, DCAMKL2” value [4, 10] was -7%, the “%-inhibition at 1 µmol/L, SGK3” value [5, 11] was 3.6% and the “%-inhibition at 1 µmol/L, EPHA3” value [6, 12] was 0.753%.

For CC(=O)Nc1cccc(-n2c(=O)n(C3CC3)c(=O)c3c(Nc4ccc(I)cc4F)n(C)c(=O)c(C)c32)c1 [trametinib], the “%-inhibition at 1 µmol/L, LTK” value [1, 13] is given as -7%, the “%-inhibition at 1 µmol/L, Erk2” value [2, 14] is given as -5% and the “%-inhibition at 1 µmol/L, HER4” value [3, 15] is given as 2.34%. The “%-inhibition at 1 µmol/L, DCAMKL2” value [4, 16] was -2.4%, the “%-inhibition at 1 µmol/L, SGK3” value [5, 17] was 0.769% and the “%-inhibition at 1 µmol/L, EPHA3” value [6, 18] was -6%.

In the case of CCCS(=O)(=O)Nc1ccc(F)c(C(=O)c2c[nH]c3ncc(-c4ccc(Cl)cc4)cc23)c1F [vemurafenib], the “%-inhibition at 1 µmol/L, LTK” value [1, 13] is listed as 2.6%, the “%-inhibition at 1 µmol/L, Erk2” value [2, 14] is listed as -4.58% and the “%-inhibition at 1 µmol/L, HER4” value [3, 15] is listed as 11%. The “%-inhibition at 1 µmol/L, DCAMKL2” value [4, 16] was -3.52%, the “%-inhibition at 1 µmol/L, SGK3” value [5, 17] was -2.38% and the “%-inhibition at 1 µmol/L, EPHA3” value [6, 18] was -7.52%.
